What was measured:
[1] = Lipophilicity (logD7.4) determination according to the present invention, two 1-octanol/phosphate buffer solvent systems in 96 deep well plate, LC/MS; type: physicochemical; conditions: 1-octanol:phosphate buffer pH 7.4 at 5:95 and 50:50, 25° C., 3 hours shaking; for logD: read-out: LogD Inventive determination method (Example)
Description: Thirty-eight test compounds were determined for logD7.4 according to the present invention. The solution amount per well was set to 1 mL, and 1-octanol was used as a hydrophobic solvent and a phosphate buffer solution buffered at pH 7.4 as a hydrophilic solvent. The amounts of the test substance to be added to the first and second solvent systems, respectively, were adjusted to be equal (X=Y in Equation I). […] Following the above-mentioned conditions, X=Y, a=5, b=95, and c=d=50 were substituted into Equation I to obtain the following quadratic equation (Equation II). As described below, once the test substance was determined, the value of C2/C1 could be determined on the basis of the peak area values and dilution ratios. The resulting value was substituted into Equation II to determine the distribution ratio D, and the common logarithm of this ratio was obtained to thereby compute logD7.4.
Dispensing, shaking, dilution and other steps were automated by a dispensing robot (Hamilton; MicroLabSTARlet), and transfer of plates between systems and some other tasks were performed manually. The specific test procedure is as follows.
Dulbecco's reagent (for 1 L of Sigma's PBS solution; containing 8 g of sodium chloride, 1.15 g of anhydrous sodium monohydrogen phosphate, 0.2 g of potassium chloride, and 0.2 g of anhydrous potassium dihydrogen phosphate) was diluted to give a volume of 1 L, stirring was performed, and insoluble matters were filtered off. The pH of the solution was measured and adjusted to pH 7.4 with 1N HCl.
A separating funnel was charged with a sufficient amount of each of 1-octanol (Kanto Chemical; for distribution coefficient determination) and the phosphate buffer solution prepared in (1), they were mixed well, and the mixture was allowed to stand overnight at room temperature. The upper and lower phases were recovered separately to obtain 1-octanol saturated with the phosphate buffer solution (saturated 1-octanol) and the phosphate buffer solution saturated with 1-octanol (saturated phosphate buffer solution). The resulting solutions were stored at room temperature.
A test compound was added to DMSO to prepare a 10 mM solution.
(1) Ten microliters of the 10 mM test compound solution in DMSO and then 490 μL of saturated 1-octanol were dispensed into a 96 deep well plate. Stirring by suction and ejection was repeated 10 times to prepare a standard octanol solution of the test compound.
(2) Fifty microliters of the standard octanol solution was dispensed into each of two wells; thereafter, 950 μL of the saturated phosphate buffer solution was dispensed into the first well (hydrophobic solvent:hydrophilic solvent=5:95), and 500 μL of the saturated phosphate buffer solution and 450 μL of saturated 1-octanol were dispensed into the second well (hydrophobic solvent:hydrophilic solvent=50:50).
(3) A pressure curable sealant was applied to the multiwell plate, and then the plate was shaken on a shaker at 25° C. for 3 hours. After the shaking, centrifugation was performed at 3000 rpm for 5 minutes.
(4) The lower phase (aqueous phase) was drawn from the first well and diluted 10-fold with methanol to thereby prepare a sample. From the second well, the upper phase (1-octanol phase) was drawn and diluted 10-fold and 50-fold with methanol to thereby prepare two additional samples.
With these 4 samples placed on an LC/MS auto sampler, determination was performed automatically.
(3) The aqueous solution of 0.1% formic acid (solution A) and the acetonitrile solution of 0.1% formic acid (solution B) were used as a HPLC mobile phase.
(4) HPLC was performed using Waters Acquity with a binary pump. The column stationary phase used was a reversed-phase column having octadecyl groups (Acquity BEH C18, 1.7 μm, 2.0×30 mm). The column temperature was set to 50° C.
(5) MS was performed using Waters ZQ or SQD. Data was acquired with the detection mode being set to ESI^+ and the type of ion to be detected being set to [M+H]^+.

[2] = Lipophilicity determination by a shake-flask method (Comparative Example), 1-octanol/phosphate buffer pH 7.4, LC/MS; type: physicochemical; conditions: 1-octanol / phosphate buffer solution pH 7.4, shaken 10 minutes
[3] = cited from earlier work

Row | SMILES | logD [1] | logD [2] | LogD Literature value [3] | LogD Inventive determination method (Example) [1]
1 | NC(=O)N1c2ccccc2C=Cc2ccccc21 [Carbamazepine] | 2 | 1.8 | 1.5 | 
2 | CCOc1ccccc1OCCN[C@H](C)Cc1ccc(OC)c(S(N)(=O)=O)c1 [Tamsulosin] | 0.8 | 0.8 |  | 
3 | Cc1ccc(-c2cc(C(F)(F)F)nn2-c2ccc(S(N)(=O)=O)cc2)cc1 [Celecoxib] | 4.5 | 4.3 |  | 
4 | OCCN1CCN(CCCN2c3ccccc3Sc3ccc(Cl)cc32)CC1 [Perphenazine] | 3.6 | 3.8 |  | 
5 | CCc1ccc(CCOc2ccc(CC3SC(=O)NC3=O)cc2)nc1 (stereo not drawn) [Pioglitazone] | 3.2 | 3 |  | 
6 | CC(CCc1ccccc1)NCC(O)c1ccc(O)c(C(N)=O)c1 (stereo not drawn) [Labetalol] | 0.9 | 1 |  | 
7 | CCCN(CCC)S(=O)(=O)c1ccc(C(=O)O)cc1 [Probenecid] | 0 | -0.3 |  | 
8 | COc1ccc2c(c1)c(CC(=O)O)c(C)n2C(=O)c1ccc(Cl)cc1 [Indomethacin] |  | 1.2 | 0.9 | 1.1
